Results on one molecule are retold here after PMC3844920 (British Journal of Cancer, 2013).

Molecules are shown by their SMILES.

In assay [1] the target is FAK (focal adhesion kinase) (Homo sapiens, UniProt Q05397). The assay is described as follows: in vitro kinase assay, Kinase-Glo luminescence. It is filed as biochemical. The note with it: read-out: FAK inhibition 1 μM ^a. (In general: Kinase-Glo measures the ATP left after a reaction by luminescence.)
In assay [2] the target is Pyk2 (Homo sapiens, UniProt Q14289). The assay can be described thus: in vitro kinase assay. In kind it is biochemical. The note with it: read-out: Pyk2 inhibition 1 μM ^a.
Pyk2, sequence (Q14289 whole entry): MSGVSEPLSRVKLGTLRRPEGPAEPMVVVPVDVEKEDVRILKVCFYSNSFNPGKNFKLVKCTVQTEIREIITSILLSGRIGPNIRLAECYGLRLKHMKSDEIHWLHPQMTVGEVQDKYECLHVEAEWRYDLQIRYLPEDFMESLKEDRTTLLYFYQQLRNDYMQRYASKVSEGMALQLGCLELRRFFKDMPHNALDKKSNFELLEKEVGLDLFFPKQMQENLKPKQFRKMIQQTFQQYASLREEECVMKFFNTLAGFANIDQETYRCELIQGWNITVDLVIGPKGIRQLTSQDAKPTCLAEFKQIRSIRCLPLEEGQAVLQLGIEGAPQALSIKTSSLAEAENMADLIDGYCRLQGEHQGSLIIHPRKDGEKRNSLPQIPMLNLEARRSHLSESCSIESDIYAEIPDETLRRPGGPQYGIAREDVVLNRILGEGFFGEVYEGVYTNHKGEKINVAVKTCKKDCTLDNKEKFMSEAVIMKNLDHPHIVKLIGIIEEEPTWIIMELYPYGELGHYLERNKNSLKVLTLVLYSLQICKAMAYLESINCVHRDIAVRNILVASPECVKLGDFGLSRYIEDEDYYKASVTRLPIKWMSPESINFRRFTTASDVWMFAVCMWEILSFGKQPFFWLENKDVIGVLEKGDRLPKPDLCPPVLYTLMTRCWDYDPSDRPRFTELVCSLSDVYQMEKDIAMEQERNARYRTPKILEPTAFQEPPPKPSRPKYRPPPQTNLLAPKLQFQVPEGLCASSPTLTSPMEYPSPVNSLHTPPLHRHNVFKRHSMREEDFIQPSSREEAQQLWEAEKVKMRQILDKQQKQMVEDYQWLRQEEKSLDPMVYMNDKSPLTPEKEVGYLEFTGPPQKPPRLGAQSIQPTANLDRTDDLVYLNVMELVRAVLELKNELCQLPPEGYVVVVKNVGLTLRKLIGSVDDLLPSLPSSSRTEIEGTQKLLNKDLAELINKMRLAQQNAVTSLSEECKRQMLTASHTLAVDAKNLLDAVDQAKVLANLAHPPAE

By inhibition is commonly meant the share of the control response that was lost under treatment.

FAK (focal adhesion kinase), sequence (Q05397 2-1052): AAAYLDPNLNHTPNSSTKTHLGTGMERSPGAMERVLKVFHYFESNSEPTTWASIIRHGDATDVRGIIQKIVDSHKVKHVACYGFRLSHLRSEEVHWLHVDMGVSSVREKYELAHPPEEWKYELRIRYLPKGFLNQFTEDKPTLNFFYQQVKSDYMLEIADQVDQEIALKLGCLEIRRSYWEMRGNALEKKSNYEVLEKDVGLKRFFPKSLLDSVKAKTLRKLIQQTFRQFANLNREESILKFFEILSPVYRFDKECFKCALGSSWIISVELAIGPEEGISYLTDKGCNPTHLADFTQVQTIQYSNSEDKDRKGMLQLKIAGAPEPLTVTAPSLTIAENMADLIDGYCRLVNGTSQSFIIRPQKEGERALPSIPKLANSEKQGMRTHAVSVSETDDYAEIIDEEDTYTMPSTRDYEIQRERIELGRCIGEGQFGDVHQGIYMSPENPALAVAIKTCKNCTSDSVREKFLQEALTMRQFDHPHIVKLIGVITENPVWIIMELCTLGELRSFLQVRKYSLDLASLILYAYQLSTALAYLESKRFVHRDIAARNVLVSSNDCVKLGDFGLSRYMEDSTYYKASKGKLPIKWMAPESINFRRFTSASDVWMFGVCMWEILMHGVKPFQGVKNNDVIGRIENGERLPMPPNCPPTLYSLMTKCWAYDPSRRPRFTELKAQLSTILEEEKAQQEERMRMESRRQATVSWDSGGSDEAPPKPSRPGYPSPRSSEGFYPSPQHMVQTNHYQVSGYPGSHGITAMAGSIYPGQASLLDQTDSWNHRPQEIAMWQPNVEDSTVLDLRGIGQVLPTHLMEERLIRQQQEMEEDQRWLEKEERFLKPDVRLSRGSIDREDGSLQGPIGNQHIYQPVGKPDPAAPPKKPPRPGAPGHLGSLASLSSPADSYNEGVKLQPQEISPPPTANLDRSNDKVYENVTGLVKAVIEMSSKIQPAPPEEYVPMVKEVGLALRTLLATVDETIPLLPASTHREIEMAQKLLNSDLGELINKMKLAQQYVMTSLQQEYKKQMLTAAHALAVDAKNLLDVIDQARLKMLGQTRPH

`c1nc2nc(Nc3ccc(N4CCOCC4)cc3)nc(NC3CCCCC3)c2[nH]1` [reversine]: the figures for the inhibition at 1 µM in assay [1] and in assay [2] were 70% and 82%, respectively.
